{"source": "patent US11844767B2", "about": "“Composition and methods for stimulating clearance of amyloid-beta protein” (Rush University Medical Center, priority 2016, dated 2023)", "key": {"[1]": {"system": "LDLR", "assay": "Quantitative RT-PCR of LDLR expression in astrocytes", "type": "cell-based, mouse", "description": "The mRNA quantification was performed using the ABI-Prism7700 sequence detection system using SYBR Select master mix. The mRNA expression of the targeted genes was normalized to the level of Gapdh mRNA and data was processed by the ABI Sequence Detection System 1.6 software."}, "[2]": {"system": "TFEB", "details": "alone and in conjunction with all-trans-retinoic acid; cited from earlier work"}}}
{"smiles": "Cc1ccc(C)c(OCCCC(C)(C)C(=O)O)c1", "note": "[GFB, gemfibrozil]", "values": [{"measurement": "expression of LDLR", "setting": "[1]; PPARα(−/−) cells", "value": "not"}, {"measurement": "expression of LDLR", "setting": "[1]; WT astrocytes", "value": "increased"}, {"measurement": "TFEB in brain cells", "setting": "[2]", "value": "capable of enhancing TFEB"}]}
